These results are taken from ChEMBL document CHEMBL1201862, “PubChem BioAssay data set” (2004).

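Compound exposure: 48 hours, 5 concentrations, 96-well plates. GI50 is the concentration that inhibits growth by half.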 Active and inactive are the calls of the source. Cut-off read from the data, not from the text of the source: active = GI50 up to about 1.1 µM and inactive = higher.

Common to all, as to assay: growth of human tumour cells (NCI), 48 h
Assay [1] relates to DLD-1.
Assay [2] relates to HOP-18.
Assay [3] relates to RXF 631.
Assay [4] concerns SNB-78.
Assay [5] deals with DMS-114.
The subject of assay [6] is M19-MEL.
For assay [7], the system named is KM-20L2.
For assay [8], the system named is XF498.
For assay [9], the system named is DMS-273.

For `COC(=O)C(C(=O)C(=O)Nc1ccccc1C(C)=O)c1nc2ccc(Cl)cc2nc1O` (stereo not drawn), the GI50 was > 100 µM (inactive) in assay [1]; 53.5 µM (inactive) in assay [2]; > 100 µM (inactive) in [3]; > 100 µM (inactive) in [4]; > 100 µM (inactive) in assay [5]; > 100 µM (inactive) in [6]. Moreover, in assay [7], the GI50 is > 100 µM (inactive).
Take `C/C(=N/N(C=O)C[n+]1ccccc1)C(CN(CC(C)C)CC(C)C)C(=O)Nc1ccc(C)cc1C` (stereo not drawn): the GI50 in [1] is > 100 µM (inactive); in [3] it was > 100 µM (inactive); in [5] it was 70.8 µM (inactive); in assay [7], > 100 µM (inactive).
Regarding `O=c1[nH]c2ccccc2cc1C(Cl)=C(Cl)Cl`, the GI50 in [1], in [8], in assay [2], in assay [4], in assay [9] and in assay [5] was > 100 µM (inactive) in each case. The GI50 in assay [6] and in [7] was > 100 µM (inactive) in each case.
As to `CCOc1ccccc1/N=N/c1c(-c2ccccc2)nn(C(=O)CC(=O)Nc2cccc(Cl)c2)c1-c1ccccc1`, the GI50 in assay [1] is 20.4 µM (inactive); in assay [8], 62.4 µM (inactive); in assay [2], > 100 µM (inactive); in [4], 59.3 µM (inactive); in [9], 22.5 µM (inactive); in assay [5] it was 15.9 µM (inactive). Further, the GI50 in [6] is 76.6 µM (inactive); in assay [7], 68.2 µM (inactive).
For the molecule `COc1ccc(C2=C(Cl)c3cc(OC)c(OC)cc3C2Cl)cc1` (stereo not drawn), the GI50 in assay [8] was < 0.01 µM (active); in [2] it was 20.3 µM (inactive); in [4], 17.9 µM (inactive); in [9], 17.2 µM (inactive); in assay [5], 14.1 µM (inactive); in [6], 18.2 µM (inactive). For the same molecule, the GI50 in assay [7] was 15.9 µM (inactive).
Take `CCN(CC)CCOc1ccc(CCc2cc(OC)c(OC)c(OC)c2)cc1`: the GI50 in assay [1] was 64.1 µM (inactive); in assay [8], 23.7 µM (inactive); in assay [2], > 100 µM (inactive); in assay [3], 53.5 µM (inactive); in assay [4], > 100 µM (inactive); in assay [9], 18.2 µM (inactive). Also, the GI50 in [5] was 21.9 µM (inactive); in assay [6], 23.8 µM (inactive); in assay [7], 31.9 µM (inactive).
Regarding `Cc1ccc(N2C(=O)C3C=CC(n4[nH]c(=O)n(Cc5ccccc5)c4=O)CC3C2=O)cc1` (stereo not drawn), the GI50 in assay [1], in assay [8], in [2], in assay [4], in assay [9] and in assay [5] was > 100 µM (inactive) each time. The GI50 in assay [6] and in assay [7] was > 100 µM (inactive) in each case.
As for `O=C1c2cccc([N+](=O)[O-])c2C(=O)c2nccnc21`, the GI50 is 2.84 µM (inactive) in [1]; 1.69 µM (inactive) in assay [2]; 3.09 µM (inactive) in assay [4]; 3.5 µM (inactive) in assay [9]; 0.982 µM (active) in assay [5]; 0.122 µM (active) in [6]. Besides, in assay [7], the GI50 was 2.7 µM (inactive).
On to `Oc1nc(-c2ccccc2)cc(-c2ccccc2O)n1`, for which the GI50 was > 100 µM (inactive) in assay [1]; 65 µM (inactive) in assay [8]; > 100 µM (inactive) in assay [2]; > 100 µM (inactive) in assay [4]; > 100 µM (inactive) in assay [9]; 58.5 µM (inactive) in assay [5]. Further, the GI50 was > 100 µM (inactive) in [6] and 67.5 µM (inactive) in assay [7].
Regarding `Oc1ccc2occ3c2c1CCC3`, the GI50 is > 100 µM (inactive) in assay [1]; 67 µM (inactive) in assay [8]; > 100 µM (inactive) in assay [2]; > 100 µM (inactive) in assay [3]; > 100 µM (inactive) in assay [4]; > 100 µM (inactive) in assay [9]. Further, the results for the GI50 in assay [5], in assay [6] and in [7] were 81.8 µM (inactive), > 100 µM (inactive) and > 100 µM (inactive), respectively.
Regarding `CCOC(=O)C1=C(Nc2ccc(Cl)c(Cl)c2)OC/C1=N\NS(=O)(=O)c1ccc(C)cc1`, the GI50 is 39.8 µM (inactive) in assay [1]; 94 µM (inactive) in [8]; 27.5 µM (inactive) in [2]; 29.6 µM (inactive) in assay [3]; > 100 µM (inactive) in [4]; 56.4 µM (inactive) in assay [5]. The GI50 in assay [6] was 94.6 µM (inactive); in assay [7], 31.4 µM (inactive).
Regarding `Cc1nc2ccccc2c(=O)n1/N=C(\N=N\c1cc(Cl)ccc1Cl)c1ccc(N(C)C)cc1`, the GI50 in assay [1] was 62.7 µM (inactive); in assay [8], 2.79 µM (inactive); in assay [2] it was 75.9 µM (inactive); in [9], 38.5 µM (inactive); in [5], 22.8 µM (inactive); in assay [6], > 100 µM (inactive). Moreover, the GI50 in assay [7] is > 100 µM (inactive).
For the molecule `O=C1C(c2ccccc2)=C(c2ccccc2)C(c2ccc(Sc3ccc(C4=C(c5ccccc5)C(=O)C(c5ccccc5)=C4c4ccccc4)cc3)cc2)=C1c1ccccc1`, the GI50 in assay [1] was > 100 µM (inactive); in assay [8], > 100 µM (inactive); in assay [3], > 100 µM (inactive); in [4] it was 87.5 µM (inactive); in assay [9] it was > 100 µM (inactive); in assay [5], > 100 µM (inactive). For the same molecule, the GI50 in assay [6] and in assay [7] was > 100 µM (inactive) each time.
In the case of `C=CCN1/C(=C2\SC(=S)N(c3ccc(C)cc3)C2=O)Sc2c1ncn(C)c2=O`, the GI50 was > 100 µM (inactive) in [1]; 73.5 µM (inactive) in assay [8]; 90.6 µM (inactive) in [4]; > 100 µM (inactive) in assay [9]; > 100 µM (inactive) in [5]; > 100 µM (inactive) in [6]. The GI50 in [7] was > 100 µM (inactive).
Take `NC(=O)c1c([N+](=O)[O-])cc(C(F)(F)F)cc1[N+](=O)[O-]`: the GI50 in assay [1] is > 100 µM (inactive); in assay [8], > 100 µM (inactive); in assay [2] it was > 100 µM (inactive); in [4] it was > 100 µM (inactive); in [9], 35.1 µM (inactive); in assay [5] it was 26.9 µM (inactive). For the same molecule, the GI50 in assay [7] is 33.3 µM (inactive).
Turning to `O=C(O)c1ccc(C2C(=O)N[C@@H]3CCC[C@H]23)cc1` (stereo partly drawn), the GI50 in assay [1], in assay [2], in [4], in assay [9], in assay [5] and in [6] was > 100 µM (inactive) each time. Further, in assay [7], the GI50 is > 100 µM (inactive).
With `CCOC(=O)Cc1nc(/C(C#N)=C/c2ccco2)[nH]c(=O)c1C#N`, the GI50 was > 100 µM (inactive) in assay [1]; > 100 µM (inactive) in [2]; 37.8 µM (inactive) in [4]; > 100 µM (inactive) in assay [9]; > 100 µM (inactive) in [6]; > 100 µM (inactive) in assay [7].
Take `CCCN(CCC)c1c([N+](=O)[O-])cc(S(N)(=O)=O)cc1[N+](=O)[O-]` [ORYZALIN]: the GI50 in assay [1] is 19.1 µM (inactive); in assay [8], 16.6 µM (inactive); in assay [2] it was 19.2 µM (inactive); in [3], 18.6 µM (inactive); in [9], 18.8 µM (inactive); in assay [5], 19 µM (inactive). The GI50 was 20.2 µM (inactive) in assay [6] and 19.3 µM (inactive) in assay [7].
Regarding `Clc1ccc2c(Cl)ncnc2c1I`, the GI50 in assay [1] is > 100 µM (inactive); in [8] it was 91.6 µM (inactive); in assay [9], > 100 µM (inactive); in [5] it was 54.3 µM (inactive); in [6], > 100 µM (inactive); in assay [7], > 100 µM (inactive).
Regarding `CCN(CC)C(c1ccc(N(C)C)cc1)C(c1ccc(N(C)C)cc1)N(CC)CC` (stereo not drawn), the GI50 is > 72.9 µM (inactive) in [3]; 21.2 µM (inactive) in [4]; 44.8 µM (inactive) in assay [9]; 14.5 µM (inactive) in [5]; 23.9 µM (inactive) in [6]; 64 µM (inactive) in assay [7].
Take `O=C(CCCNC(=O)OCc1ccccc1)OCc1ccc2c(c1)C(=O)c1ccccc1C2=O`: the GI50 in [1] is > 100 µM (inactive); in [3], > 78.7 µM (inactive); in [4] it was 38.4 µM (inactive); in assay [5], > 97.1 µM (inactive); in assay [7], > 100 µM (inactive).
Consider `Cc1c[nH]c2c1C13CC1CN(C(=O)c1cc4cc(NC(=O)c5cc6ccccc6o5)ccc4[nH]1)C3=CC2=O` (stereo not drawn), for which the GI50 in assay [1], in [8], in [2], in [3], in assay [4] and in [5] was < 0.001 µM (active) each time. Also, the GI50 in [6] and in [7] was < 0.001 µM (active) each time.
Turning to `COc1ccc(/C(=C/n2ccnc2)C(=O)c2ccc(OC)c(OC)c2)cc1`, the GI50 in assay [1], in assay [8], in [9], in [5], in [6] and in assay [7] was > 100 µM (inactive) each time.
Take `CCCCCCCCCCCCCCCC/C(C(=O)OC)=C(/O)C(=O)OCC`: the GI50 in [1], in assay [2], in assay [4], in assay [9], in [5] and in [6] was > 100 µM (inactive) throughout. Also, in [7], the GI50 was > 100 µM (inactive).
With `C(CCC[Te][Te]CCCCCCOC1CCCCO1)CCOC1CCCCO1` (stereo not drawn), the GI50 was 15.7 µM (inactive) in assay [1]; 10.2 µM (inactive) in assay [8]; 19.3 µM (inactive) in assay [2]; 17.1 µM (inactive) in [4]; 3.89 µM (inactive) in assay [5]; 14.7 µM (inactive) in assay [7].
Take `CCCCCCN(CCCCCC)C(=S)N/N=C(\C)c1ccccn1`: the GI50 in assay [1] is 1.26 µM (inactive); in [3] it was 1.02 µM (active); in [4] it was 0.711 µM (active); in assay [9], 1.63 µM (inactive); in [5], 0.571 µM (active); in assay [7], 0.673 µM (active).
